The record followed here is ChEMBL document CHEMBL2203217, “Prohormone-substrate peptide sequence recognition by peptidylglycine α-amidating monooxygenase and its reflection in increased glycolate inhibitor potency” (Bioorg Med Chem Lett, 2012).

The structures appear in SMILES notation.

Test [1] has as its target T1, Peptidyl-glycine alpha-amidating monooxygenase (Homo sapiens, UniProt P19021).
T1 sequence (P19021 whole entry): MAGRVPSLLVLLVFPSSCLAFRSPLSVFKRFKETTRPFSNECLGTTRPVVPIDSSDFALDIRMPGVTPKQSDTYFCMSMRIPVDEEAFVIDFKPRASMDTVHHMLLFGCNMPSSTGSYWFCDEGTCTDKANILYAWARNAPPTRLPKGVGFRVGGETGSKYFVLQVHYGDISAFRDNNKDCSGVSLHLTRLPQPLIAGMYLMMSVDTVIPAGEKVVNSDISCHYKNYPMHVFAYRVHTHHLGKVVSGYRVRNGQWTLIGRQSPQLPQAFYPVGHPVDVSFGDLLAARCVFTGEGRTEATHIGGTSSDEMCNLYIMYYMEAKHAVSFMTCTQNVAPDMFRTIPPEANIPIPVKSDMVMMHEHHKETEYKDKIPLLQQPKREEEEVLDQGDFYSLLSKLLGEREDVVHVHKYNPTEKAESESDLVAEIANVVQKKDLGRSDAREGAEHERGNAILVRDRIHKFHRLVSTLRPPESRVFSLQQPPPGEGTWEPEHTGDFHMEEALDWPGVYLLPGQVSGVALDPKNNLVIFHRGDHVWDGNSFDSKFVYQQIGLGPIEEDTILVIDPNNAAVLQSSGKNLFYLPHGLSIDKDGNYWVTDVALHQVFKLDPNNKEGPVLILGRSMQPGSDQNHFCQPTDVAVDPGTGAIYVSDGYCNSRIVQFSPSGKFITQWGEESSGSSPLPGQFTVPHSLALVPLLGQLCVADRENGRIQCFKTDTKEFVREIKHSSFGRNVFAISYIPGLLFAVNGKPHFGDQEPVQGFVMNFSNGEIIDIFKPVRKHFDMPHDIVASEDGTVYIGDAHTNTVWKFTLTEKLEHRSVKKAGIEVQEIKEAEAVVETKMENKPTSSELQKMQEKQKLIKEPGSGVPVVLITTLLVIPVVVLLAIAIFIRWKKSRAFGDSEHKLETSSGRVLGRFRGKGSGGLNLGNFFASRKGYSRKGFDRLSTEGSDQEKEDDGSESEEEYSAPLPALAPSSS
Put plainly: Competitive inhibition of PAM in human DMS53 cells using as(R)-Tyr-(S)-Val-Gly as substrate after 2 hrs by HPLC analysis. In kind it is cell-based, DMS-53.

Test [2] deals with T1, Peptidyl-glycine alpha-amidating monooxygenase. Put plainly: Competitive inhibition of secreted PAM in human DMS53 cell culture medium using as(R)-Tyr-(S)-Val-Gly as substrate after 2 hrs by HPLC analysis. Set-up: species or system DMS-53.

Broadly, the IC50 is the point on the concentration scale where inhibition reaches its midpoint. Read a low IC50 as higher potency. Consider `C[C@H](N)C(=O)N1CCC[C@H]1C(=O)OCC(=O)O`, for which the IC50 in test [1] amounted to 370 µM; in test [2], 290 µM.

For `C[C@H](NC(=O)CN)C(=O)N1CCC[C@H]1C(=O)OCC(=O)O`, the IC50 came to 980 µM in test [1] and 1100 µM in test [2].
